Laboratory results reported in US12521419B2, “Use of anti-aging glycopeptides to enhance pancreatic cell health, survival and improve transplant outcome” (Protokinetix Inc., priority 2014, dated 2026).

Columns and labels:
mouse splenocytes = assay: Allogeneic mixed lymphocyte reaction, T cell proliferation by CFSE staining; format: cell-based; conditions: vs IgG control, n=4
Text: The assay measures T cell proliferative response by levels of CFSE staining.

human islets [1] = assay: Capacitance measurement as indicator of exocytosis upon high glucose stimulation; format: cell-based
Description: Complementary capacitance studies were performed with these same conditions as an indirect indicator of exocytosis upon high glucose stimulation.

human islets [2] = assay: Static GSIS assay (stimulation index); format: cell-based; conditions: day 3, tacrolimus present
Text: Similar experimental conditions were recreated (human islets cultured with and without AAGP™ and exposed to tacrolimus) and aliquots of approximately 100 IEQ were collected on day 3 for each corresponding group to undergo s-GSIS assay and simultaneous intracellular insulin content. Islets were then extensively washed to remove tacrolimus and left in culture for 4 more days, when sampling and comparative testing was repeated on day 7.

human islets [3] = assay: Viability by fluorescent membrane integrity assay (syto green/ethidium bromide); format: cell-based; conditions: 24 h ± AAGP then 24 hr tacrolimus 10 ng/mL
Description: After 24 hr of culture, islets are assessed for recovery, viability and function. Recovery rate is calculated as the percentage of surviving islets after 24 hr culture in comparison to the initial count for each condition. Viability is assessed using a fluorescent membrane integrity assay with counter-stains syto green/ethidium bromide (Cedarlane Laboratories, Burlington, ON, and Sigma-Aldrich, ON) (Islet isolation for clinical transplantation. In: Shahidul. M, (ed). The islets of Langerhans. New York: Springer, 2010; Ranuncoli A, et al. Cell transplantation 2000; 9(3):409-414; Ricordi C. et al. Acta diabetologica latina 1990; 27(3):185-195; and Barnett M J et al. Cell transplantation 2004; 13(5):481-488).

[4] = system: human islets transplanted under the kidney capsule; assay: Intra-graft apoptosis 24 h post-transplant (cleaved caspase-3, TUNEL); format: in vivo, immunodeficient mice; conditions: graft 24 h after transplant
Description: Apoptosis is measured in all groups using a cleaved caspase-3 spectrophotometric assay and Terminal deoxynucleotidyl transferase dUTP nick end labeling (TUNEL) staining. All determinations are made on normalized groups of 100 IEQ and their corresponding culture media.
Frozen media samples are used to determine cleaved caspase-3 increase using a spectrophotometric assay (EMD Millipore™. Billerica, MA, USA). Again, CMRL culture media alone with additives and no cells is used as a control, and results are expressed as fold-change increase compared to the control media.
For TUNEL staining (DeadEnd™ Apoptosis Detection System, Promega, Madison, WI), islets are fixed in formalin, processed and embedded in paraffin. Co-staining is performed to identify the graft (insulin), apoptotic cells and all nuclei present in the field. Apoptosis is quantified by percentage of positive TUNEL stained area using imageJ software.
Three mice per group underwent nephrectomy and are euthanized 24 hr post-transplant to perform acute determination of proinflammatory cytokines, cleaved capase-3 and TUNEL in the graft area. In all cases the islet graft is excised from the kidney, weighed, flash frozen in liquid nitrogen and stored at −80° C. […]

[5] = system: human islets transplanted under the kidney capsule; assay: Proinflammatory cytokines and chemokines in homogenized graft 24 h post-transplant; format: in vivo, immunodeficient mice; conditions: 24 h after transplant, 1,000 IEQ, islets cultured with tacrolimus ± AAGP, n=3
Description: After 24 hr exposure to tacrolimus, samples from culture media of all groups are frozen and relevant cytokines and chemokines (IFN-γ, IL-1β, IL-6, IL-10, IL-12, Keratinocyte-derived Chemokine (KC), and TNF-α) are measured using a Multi-Spot Human ProInflammatory 7-Plex Ultra-Sensitive kit (Meso Scale Discovery®, Gaithersburg, MD, USA), analyzed on the SECTOR™ Imager (Meso Scale Discovery®, Gaithersburg, MD, USA). Results are expressed as absolute values (pg/mL), and CMRL culture media alone is used as a control for comparison.
Eight to 12 week immunodeficient mice (B6.129S7-Rag1^tm1Mom) are obtained from the Jackson Laboratory (Bar Harbor, ME, USA) and housed under specific pathogen-free conditions with access to food and water ad libitum. Animals are cared for according to the guidelines of the Canadian Council on Animal Care, and ethical approval is obtained from the animal welfare committee at the University of Alberta.
Animals are considered diabetic after two consecutive blood glucose measurements are documented≥18 mmol/L.
Ten animals per group received approximately 1,000 IEQ human islets transplanted under the capsule of the left kidney as described previously (19).
Three mice per group underwent nephrectomy and are euthanized 24 hr post-transplant to perform acute determination of proinflammatory cytokines, cleaved capase-3 and TUNEL in the graft area. In all cases the islet graft is excised from the kidney, weighed, flash frozen in liquid nitrogen and stored at −80° C. Tissue samples are subsequently lysed using 1 ml of lysis buffer (0.15 M NaCl, 1 mM Tris-HCL, 0.1% SDS, 0.1% Triton X-100, 20 mM Sodium deoxycholate, 5 mM EDTA) per 200 mg of tissue. Lysates are then homogenized (PowerGen, Fisher Scientific, ON, Canada) on ice for 30 sec×2 replications, and sonicated (VirSonic, VirTis, NY, USA) with 10 quick pulses while on ice. Cellular debris is pelleted by centrifugation at 14,000 rpm for 10 min at 4° C. and the resulting supernatant is collected and placed in a microcentrifuge tube containing 10 μl of a protease inhibitor cocktail (Sigma-Aldrich Canada Co., Oakville, ON, Canada) per 1 ml of lysate (1:100).
Graft samples are assayed (using the corresponding mouse kit) for pro-inflammatory cytokines/chemokines, caspase-3 and TUNEL staining, as previously described. All determinations are adjusted per gram of tissue.
Further in vivo testing is performed to complement our in vitro findings. Using the same study groups (Tac−, Tac+ and Tac+AAGP™) minimal mass (1,000 IEQ) islet transplants are performed in chemically-induced diabetic immunodeficient mice (n=10 per group). […]

## C=CC[C@@H]1/C=C(\C)C[C@H](C)C[C@H](OC)[C@H]2O[C@@](O)(C(=O)C(=O)N3CCCC[C@H]3C(=O)O[C@H](/C(C)=C/[C@@H]3CC[C@@H](O)[C@H](OC)C3)[C@H](C)[C@@H](O)CC1=O)[C@H](C)C[C@@H]2OC.O [Tac+, tacrolimus]
Mouse splenocytes
  T cell proliferation (CD8+ and CD4+): significantly decreased
Human islets [1]
  cumulative capacitance area under the curve: 39.08
Human islets [2]
  stimulation index (s-GSIS): 1.4
Human islets [3]
  cell viability by membrane integrity stain: no difference in cell viability
[4]; n=3
  cleaved caspase-3, fold-change increase relative to kidneys of naïve mice: 3.14
[4]; control 14.9%
  percentage of TUNEL positive cells: 53.3%
[5]
  IL-1β level in graft: 17.81 pg/mL/g-tissue
  IL-6 level in graft: 147.8 pg/mL/g-tissue
  KC (keratinocyte chemokine) level in graft: 9.79 pg/mL/g-tissue
  TNF-α level in graft: 1.63 pg/mL/g-tissue
